Source: US20260048047A1, “SMALL-MOLECULE ACTIVATORS OF MYCOBACTERIUM TUBERCULOSIS ADENYLYL CYCLASE” (priority 2022, published 2026)

System: M. tuberculosis
Assay: Extracellular activity against M. tuberculosis in cholesterol media (Alamar Blue reduction assay)
Assay type: cell-based, Mycobacterium tuberculosis
Conditions: Mycobacterium tuberculosis, 240 h, 7H12-Cholesterol media, 10 days; read-out: Cholesterol broth: alamar blue--EC50

Compound	EC50
COCc1noc(C2CCN(C(=O)Cc3nonc3C)CC2)n1 [Compound 92, 1-(4-(3-(methoxymethyl)-1,2,4-oxadiazol-5-yl)piperidin-1-yl)-2-(4-methyl-1,2,5-oxadiazol-3-yl)ethan-1-one]	> 10 µM
Cc1nonc1CC(=O)N1CCC(c2nc(-c3ccc(Cl)cc3Cl)no2)CC1 [Compound 94, 1-(4-(3-(2,4-dichlorophenyl)-1,2,4-oxadiazol-5-yl)piperidin-1-yl)-2-(4-methyl-1,2,5-oxadiazol-3-yl)ethan-1-one]	0.146 µM
Cc1nonc1CC(=O)N1CCC(c2nc(-c3ccc(Cl)c(Cl)c3)no2)CC1 [Compound 95, 1-(4-(3-(3,4-dichlorophenyl)-1,2,4-oxadiazol-5-yl)piperidin-1-yl)-2-(4-methyl-1,2,5-oxadiazol-3-yl)ethan-1-one]	0.0644 µM
Cc1nonc1CC(=O)N1CCC(O)(c2nc(-c3ccc(Cl)c(Cl)c3)no2)CC1 [Compound 96, 1-(4-(3-(3,4-dichlorophenyl)-1,2,4-oxadiazol-5-yl)-4-hydroxypiperidin-1-yl)-2-(4-methyl-1,2,5-oxadiazol-3-yl)ethan-1-one]	0.61 µM
Cc1nonc1CC(=O)N1CCC(n2nnc(-c3ccc(Cl)cc3)n2)CC1 [Compound 97, 1-(4-(5-(4-chlorophenyl)-2H-tetrazol-2-yl)piperidin-1-yl)-2-(4-methyl-1,2,5-oxadiazol-3-yl)ethan-1-one]	0.149 µM
Cc1nonc1CC(=O)N1CCC(c2nc(-c3ccc(Cl)cc3)no2)CC1 [Compound 98, 1-(4-(3-(4-chlorophenyl)-1,2,4-oxadiazol-5-yl)piperidin-1-yl)-2-(4-methyl-1,2,5-oxadiazol-3-yl)ethan-1-one]	0.114 µM
Cc1nonc1CC(=O)N1CCC(c2nc(-c3cccc(Cl)c3)no2)CC1 [Compound 99, 1-(4-(3-(3-chlorophenyl)-1,2,4-oxadiazol-5-yl)piperidin-1-yl)-2-(4-methyl-1,2,5-oxadiazol-3-yl)ethan-1-one]	0.53 µM
Cc1nonc1CC(=O)N1CCC(c2nc(C3CCC(C(F)(F)F)CC3)no2)CC1 (centres unmarked) [Compound 100, 2-(4-methyl-1,2,5-oxadiazol-3-yl)-1-(4-(3-(4-(trifluoromethyl)cyclohexyl)-1,2,4-oxadiazol-5-yl)piperidin-1-yl)ethan-1-one]	0.688 µM
Cc1nonc1CC(=O)N1CCC(c2nc(-c3ccc(Cl)c(OC(F)(F)F)c3)no2)CC1 [Compound 101]	0.731 µM
Cc1nonc1CC(=O)N1CCC(c2nc(-c3ccc(OC(F)(F)F)cc3)no2)CC1 [Compound 102, 2-(4-methyl-1,2,5-oxadiazol-3-yl)-1-(4-(3-(4-(trifluoromethoxy)phenyl)-1,2,4-oxadiazol-5-yl)piperidin-1-yl)ethan-1-one]	0.167 µM
Cc1nonc1CC(=O)N1CCC(c2nc(-c3cccc(OC(F)(F)F)c3)no2)CC1 [Compound 103, 2-(4-methyl-1,2,5-oxadiazol-3-yl)-1-(4-(3-(3-(trifluoromethoxy)phenyl)-1,2,4-oxadiazol-5-yl)piperidin-1-yl)ethan-1-one]	0.383 µM
Cc1nonc1CC(=O)N1CCC(c2nc(-c3ccccc3OC(F)(F)F)no2)CC1 [Compound 104, 2-(4-methyl-1,2,5-oxadiazol-3-yl)-1-(4-(3-(2-(trifluoromethoxy)phenyl)-1,2,4-oxadiazol-5-yl)piperidin-1-yl)ethan-1-one]	2.96 µM
Cc1nonc1CC(=O)N1CCC(c2nc(-c3ccc(Cl)c(C(F)(F)F)c3)no2)CC1 [Compound 105, 1-(4-(3-(4-chloro-3-(trifluoromethyl)phenyl)-1,2,4-oxadiazol-5-yl)piperidin-1-yl)-2-(4-methyl-1,2,5-oxadiazol-3-yl)ethan-1-one]	0.744 µM
Cc1nonc1CC(=O)N1CCC(c2nc(-c3ccc(C(F)(F)F)cc3)no2)CC1 [Compound 106, 2-(4-methyl-1,2,5-oxadiazol-3-yl)-1-(4-(3-(4-(trifluoromethyl)phenyl)-1,2,4-oxadiazol-5-yl)piperidin-1-yl)ethan-1-one]	0.754 µM
